According to patent US5710154A, “Tetrahydrofuran antifungals” (Schering Corporation, priority 1995, dated 1998):

What was measured:
[1] = Serum levels following oral dosing, monkeys; assay type: in vivo; conditions: methyl cellulose formulation, compared to azoles of similar structure
[2] = Serum levels following oral dosing, mice; assay type: in vivo; conditions: methyl cellulose formulation, compared to azoles of similar structure
[3] = Serum half life and tissue distribution following O.D. dosing; assay type: in vivo, mice, rats, dogs and monkeys
[4] = Serum levels following oral dosing, dogs; assay type: in vivo; conditions: methyl cellulose formulation, compared to azoles of similar structure
[5] = Serum levels following oral dosing, rats; assay type: in vivo; conditions: methyl cellulose formulation, compared to azoles of similar structure
Candida glabrata = test: In vitro antifungal activity, broth dilution (MIC/MFC), Candida glabrata; assay type: cell-based; conditions: 9 strains
Protocol: (§1) The in vitro antifungal activity tests were performed via conventional broth dilution methods in Sabouraud dextrose broth ("SDB") medium and Eagles Minimum Essential Medium ("EMEM") against a large number of fungi. Minimum Inhibitory Concentrations ("MICs") were measured after 24, 48 and 72 hour tests. In many cases, Minimum Fungicidial Concentrations ("MFCS") were measured after 48 and 72 hours.

Cryptococcus neoformans = test: In vitro antifungal activity, broth dilution (MIC/MFC), Cryptococcus neoformans; assay type: cell-based; conditions: 3 strains
Protocol: as §1

Dermatophytes = test: In vitro antifungal activity, broth dilution (MIC/MFC), dermatophytes; assay type: cell-based, T. rubrum, T. mentagrophytes, and T. tonsurans; conditions: 6 strains
[6] = system: Candida tropicalis & stellatoidea; test: In vitro antifungal activity, broth dilution (MIC/MFC), Candida tropicalis & stellatoidea; assay type: cell-based; conditions: 5 strains
Protocol: as §1

Candida albicans = test: In vitro antifungal activity, broth dilution (MIC/MFC), Candida albicans; assay type: cell-based; conditions: 26 strains
Protocol: as §1

Candida krusei = test: In vitro antifungal activity, broth dilution (MIC/MFC), Candida krusei; assay type: cell-based; conditions: 16 strains
Protocol: as §1

Aspergillus = test: In vitro antifungal activity, broth dilution (MIC/MFC), Aspergillus; assay type: cell-based, Aspergillus (flavus, fumigatus and other species); conditions: 37 strains
Protocol: as §1

Structure (SMILES): CCC(C(C)O)n1ncn(-c2ccc(N3CCN(c4ccc(OCC5COC(Cn6cncn6)(c6ccc(F)cc6F)C5)cc4)CC3)cc2)c1=O (stereo not drawn) [drawing 21]
- serum levels [1]: consistently higher serum levels
- serum levels [2]: consistently higher serum levels
- tissue distribution [3]: good tissue distribution
- serum levels [4]: consistently higher serum levels
- serum levels [5]: consistently higher serum levels

Structure (SMILES): CCC(C(C)O)n1ncn(-c2ccc(N3CCN(c4ccc(OCC5COC(Cn6cncn6)(c6ccc(F)cc6F)C5)cc4)CC3)cc2)c1=O (stereo not drawn) [drawing 26]
- Percentage of strains with MFCs ≤1 mcg/ml (Candida glabrata): 22%
- Percentage of strains with MFCs ≤1 mcg/ml (Cryptococcus neoformans): 100%
- Percentage of strains with MFCs ≤1 mcg/ml (Dermatophytes): 67%
- Percentage of strains with MFCs ≤1 mcg/ml [6]: 100%
- Percentage of strains with MFCs ≤1 mcg/ml (Candida albicans): 100%
- Percentage of strains with MFCs ≤1 mcg/ml (Candida krusei): 88%
- Percentage of strains with MFCs ≤1 mcg/ml (Aspergillus): 50%

Structure (SMILES): CCC(C(C)O)n1ncn(-c2ccc(N3CCN(c4ccc(OCC5COC(Cn6cncn6)(c6ccc(F)cc6F)C5)cc4)CC3)cc2)c1=O (stereo not drawn) [drawing 27]
- Percentage of strains with MFCs ≤1 mcg/ml (Candida glabrata): 22%
- Percentage of strains with MFCs ≤1 mcg/ml (Cryptococcus neoformans): 100%
- Percentage of strains with MFCs ≤1 mcg/ml (Dermatophytes): 83%
- Percentage of strains with MFCs ≤1 mcg/ml [6]: 100%
- Percentage of strains with MFCs ≤1 mcg/ml (Candida albicans): 100%
- Percentage of strains with MFCs ≤1 mcg/ml (Candida krusei): 94%
- Percentage of strains with MFCs ≤1 mcg/ml (Aspergillus): 62%

Structure (SMILES): CCC(C(C)O)n1ncn(-c2ccc(N3CCN(c4ccc(OCC5COC(Cn6cncn6)(c6ccc(F)cc6F)C5)cc4)CC3)cc2)c1=O (stereo not drawn) [drawing 28]
- Percentage of strains with MFCs ≤1 mcg/ml (Candida glabrata): 22%
- Percentage of strains with MFCs ≤1 mcg/ml (Cryptococcus neoformans): 100%
- Percentage of strains with MFCs ≤1 mcg/ml (Dermatophytes): 100%
- Percentage of strains with MFCs ≤1 mcg/ml [6]: 100%
- Percentage of strains with MFCs ≤1 mcg/ml (Candida albicans): 100%
- Percentage of strains with MFCs ≤1 mcg/ml (Candida krusei): 100%
- Percentage of strains with MFCs ≤1 mcg/ml (Aspergillus): 89%

Structure (SMILES): CCC(C(C)O)n1ncn(-c2ccc(N3CCN(c4ccc(OCC5COC(Cn6cncn6)(c6ccc(F)cc6F)C5)cc4)CC3)cc2)c1=O (stereo not drawn) [drawing 30]
- MIC 90 (Minimum Inhibitory Concentrations for 90% of the strains) (Cryptococcus neoformans): .05 MCG/ML
- MIC 90 (Minimum Inhibitory Concentrations for 90% of the strains) (Dermatophytes): .165 MCG/ML
- MIC 90 (Minimum Inhibitory Concentrations for 90% of the strains) [6]: .117 MCG/ML
- MIC 90 (Minimum Inhibitory Concentrations for 90% of the strains) (Candida krusei): .058 MCG/ML

Structure (SMILES): CCC(C(C)O)n1ncn(-c2ccc(N3CCN(c4ccc(OCC5COC(Cn6cncn6)(c6ccc(F)cc6F)C5)cc4)CC3)cc2)c1=O (stereo not drawn) [drawing 31]
- MIC 90 (Minimum Inhibitory Concentrations for 90% of the strains) (Candida glabrata): 17.1 MCG/ML
- MIC 90 (Minimum Inhibitory Concentrations for 90% of the strains) (Cryptococcus neoformans): .007 MCG/ML
- MIC 90 (Minimum Inhibitory Concentrations for 90% of the strains) (Dermatophytes): .101 MCG/ML
- MIC 90 (Minimum Inhibitory Concentrations for 90% of the strains) [6]: .117 MCG/ML
- MIC 90 (Minimum Inhibitory Concentrations for 90% of the strains) (Candida albicans): .174 MCG/ML
- MIC 90 (Minimum Inhibitory Concentrations for 90% of the strains) (Candida krusei): .014 MCG/ML
- MIC 90 (Minimum Inhibitory Concentrations for 90% of the strains) (Aspergillus): .096 MCG/ML

Structure (SMILES): CCC(C(C)O)n1ncn(-c2ccc(N3CCN(c4ccc(OCC5COC(Cn6cncn6)(c6ccc(F)cc6F)C5)cc4)CC3)cc2)c1=O (stereo not drawn) [drawing 32]
- MIC 90 (Minimum Inhibitory Concentrations for 90% of the strains) (Candida glabrata): 28.8 MCG/ML
- MIC 90 (Minimum Inhibitory Concentrations for 90% of the strains) (Dermatophytes): .707 MCG/ML
- MIC 90 (Minimum Inhibitory Concentrations for 90% of the strains) [6]: .354 MCG/ML
- MIC 90 (Minimum Inhibitory Concentrations for 90% of the strains) (Candida albicans): .139 MCG/ML
- MIC 90 (Minimum Inhibitory Concentrations for 90% of the strains) (Candida krusei): .12 MCG/ML
- MIC 90 (Minimum Inhibitory Concentrations for 90% of the strains) (Aspergillus): .112 MCG/ML

Structure (SMILES): OC(Cn1cncn1)(Cn1cncn1)c1ccc(F)cc1F [fluconazole, reference compound]
- Percentage of strains with MFCs ≤1 mcg/ml (Candida glabrata): 0%
- Percentage of strains with MICs ≤1 mcg/ml (Candida glabrata): 0%
- Percentage of strains with MFCs ≤1 mcg/ml (Cryptococcus neoformans): 0%
- Percentage of strains with MICs ≤1 mcg/ml (Cryptococcus neoformans): 0%
- Percentage of strains with MFCs ≤1 mcg/ml (Dermatophytes): 0%
- Percentage of strains with MICs ≤1 mcg/ml (Dermatophytes): 100%
- Percentage of strains with MFCs ≤1 mcg/ml [6]: 100%
- Percentage of strains with MICs ≤1 mcg/ml [6]: 100%
- Percentage of strains with MFCs ≤1 mcg/ml (Candida albicans): 100%
- Percentage of strains with MICs ≤1 mcg/ml (Candida albicans): 100%
- Percentage of strains with MFCs ≤1 mcg/ml (Candida krusei): 0%
- Percentage of strains with MICs ≤1 mcg/ml (Candida krusei): 0%
- Percentage of strains with MFCs ≤1 mcg/ml (Aspergillus): 0%
- Percentage of strains with MICs ≤1 mcg/ml (Aspergillus): 0%
